Oligonucleotides are written 5' to 3', each unit as a sugar letter and its base; * is a phosphorothioate linkage, no mark a phosphodiester; rarer units and linkages stand in square brackets, end groups in braces. Plain capitals give the bases only. d = 2'-deoxy (DNA); {P} = phosphate
Experiments:
human melanocytes = assay: Melanogenesis in human melanocytes; format: cell-based; settings: after one week in culture
[1] = system: p53-null osteosarcoma cell line (Saos-2); assay: FACS cell cycle analysis of Saos-2 cells; format: cell-based, human; settings: 40 μM; 48 hours
Source text: In order to determine whether these oligonucleotides similarly affect other human cell types and to investigate the role of p53, we treated a squamous cell carcinoma line (SCC12F) (Rheinwald, J. G., et al., 1983, Human carcinogenesis. pp. 86–96. Academic Press (New York)) that over-expresses a presumptively mutated p53 (Eller, M. S. and B. A. Gilchrest. 2000, Pigment Cell Res. 13: 94–97) and a p53-null osteosarcoma cell line (Saos-2) (Wang, L. H., et al., 1998, Anticancer Res 18: 321–325) with either diluent alone, 11mer-1, 11mer-2 or 11mer-3. Cultures were analyzed by FACS after 48 hours (FIGS. 33A–33H). […] Although the percentage of cells in the S-phase in 11mer-1-treated SCC12F and Saos-2 cells was virtually identical (53±6% and 52±1%, respectively), the G0/G1 and G2/M content of the two cell types were somewhat different. This may reflect differential uptake of the oligonucleotide leading to dose-dependent differences, and/or different pathways acting in these cells to control the cell cycle. No apoptotic response to the oligonucleotides was detected in either cell type within 72 hours.

p53, E2F1 = assay: Western analysis of p53 and E2F1 in Jurkat cells; format: cell-based, human; settings: by 24 hours
Method: Oligonucleotides homologous to the telomere overhang repeat sequence (TTAGGG; SEQ ID NO:11), sequence (11mer-1: pGTTAGGGTTAG; SEQ ID NO: 5), complementary to this sequence (11mer-2: pCTAACCCTAAC; SEQ ID NO: 9) and unrelated to the telomere sequence (11mer-3: pGATCGATCGAT; SEQ ID NO: 10) were added to cultures of Jurkat cells, a line of human T cells, one of the cell types reported to undergo apoptosis in response to telomere disruption. Within 48 hours, 50% of the cells treated with 40 μM of SEQ ID NO: 5 had accumulated in the S phase, compared to 25–30% for control cells (p<0.0003, non-paired t-test; see FIGS. 19A–19D), and by 72 hours, 13% of these cells were apoptotic as determined by a sub-G0/G1 DNA content, compared to 2–3% of controls (p<0.007, non-paired t-test; see FIGS. 19E–19H). At 96 hours, 20±3% of the 11mer-1 treated cells were apoptotic compared with 3–5% of controls (p<0.0001, non-paired t-test). […] The fluorescence intensity of the cells was the same after all treatments at 4 hours and 24 hours.
Cells were plated at a density of 180,000 cells/ml in RPMI 1640 medium supplemented with 3% FBS. […] TUNEL-positive cells were detected by FACS analysis and confocal microscopy. […] Uptake of the oligonucleotides was assessed in 5–10 μm sections with a Carl Zeiss LSM 510 confocal laser microscope. […] Fluorescence was measured on the FL-1 channel. […]

SDI 1 mRNA = SDI 1 mRNA in H1299 cells with or without p53 expression vector; format: cell-based, human; settings: 100 μM, 24 hours
Method: Preconfluent cultures of H1299 cells were transfected with an expression vector containing the wild type human p53 cDNA under the control of the human cytomegalovirus promoter/enhancer (Dr. Bert Vogelstein, Johns Hopkins Oncology Center). Control transfections were performed using the vector from which the p53 cDNA was removed. Transfections were carried out using the Lipofectin Reagent Kit (GIBCO/BRL). One day after transfection, cells were collected for Western blot analysis using 20 μg total protein as described (Yaar, M. et al., J. Clin. Invest. 94:1550–1562 (1994)). p53 was detected using mAb 421, anti-mouse Ig linked to horseradish peroxidase (Amersham, Arlington Heights, Ill.) and an ECL-kit (Amersham), following the directions of the manufacturer. At the time of protein collection, duplicate cultures of H1299 cells transfected with the p53 expression vector (designated “p53”) or control vector (“Ctrl”) were given either diluent (DMEM) or 100 μM pTpT. After 24 hours, the cells were collected, processed for RNA isolation and Northern blot analysis with an SDI 1 cDNA probe. The autoradiograph was scanned using a Macintosh IIsi computer and Macintosh One Scanner, and the brightness and contrast were adjusted to display differences in autoradiographic signals maximally. […]

“pGAGTATGAG (DNA, 5' {P}, backbone not given here) [SEQ ID NO: 1]” was tested, and the increase in melanogenesis (human melanocytes) was 51–62%.

With “pGTTAGGGTTAG (DNA {P}-dGdTdTdAdGdGdGdTdTdAdG) [SEQ ID NO: 5]” the “cells in the S-phase” value [1] was 52±1%, the E2F1 level (p53, E2F1) was “concomitant increase in the level of the E2F1 transcription factor” and the p53 level (p53, E2F1) was “an increase in p53”.

In the case of thymidine dinucleotide [pTpT], the “level of SDI 1 transcript” value (SDI 1 mRNA; H1299 transfected with wild-type p53 expression vector) is reported as “inducible by addition of pTpT” and the “level of SDI 1 transcript” value (SDI 1 mRNA; p53-null H1299 cells) is reported as “not affected by addition of pTpT”.

Source: patent US7033829B2, “Method to inhibit cell growth using oligonucleotides” (Trustees of Boston University, priority 2000, dated 2006)
